From patent US5607914A, “Synthetic antimicrobial peptides” (Pioneer Hi-Bred International, Inc., priority 1994, dated 1997)
Like-named read-outs stand apart in the source and are kept apart here. No end group written: not given here.

What was measured:
[1] = test system: F. moniliforme; experiment: Antifungal activity of synthetic peptides (MIC/MCIC); type: cell-based
[2] = test system: F. graminearum; type: cell-based
[3] = test system: A. flavus; experiment: Antifungal activity of synthetic peptides (MIC/MCIC); type: cell-based
[4] = test system: E. coli
[5] = test system: C. nebraskense
[6] = test system: A. tumefaciens

Question: Which MIC ([1]; F. moniliforme, score of 1 or greater (25% growth inhibition)) does the source give for Mastoparan here?
Answer: 2.5 µg/mL

Question: What about the MCIC ([1]; F. moniliforme, score of 3 or greater (≥80% growth inhibition)) of the same substance?
Answer: 10 µg/mL

Question: And the MCIC [2]?
Answer: 10

Question: And the MIC [2]?
Answer: 5 µg/mL

Question: What about the MIC ([3]; A. flavus, concentration achieving a score of 1 or greater (25% growth inhibition)) of the same substance?
Answer: 20 µg/mL

Question: And the MCIC ([3]; A. flavus, concentration achieving a score of 3 or greater (≥80% growth inhibition))?
Answer: 40 µg/mL

Question: What does the source list for RRIYRAIRHIPRRIR [Peptide 22]?
Answer: MIC ([4]; E. coli): 3.13 μg per ml; MIC ([5]; C. nebraskense): 12.5 μg per ml

Question: What does the source list for “Cecropin A (KWKLFKKIEKVGQNIRDGIIKAGPAVAVVGQATQIAK; ends and bridges not checked; UniProt P01507 27-63, looked up)”?
Answer: MCIC [1]: > 80; MIC [1]: 80 µg/mL; MIC ([2]; F. graminearum, score of 1 or greater (25% growth inhibition)): 60 µg/mL; MCIC ([2]; F. graminearum, score of 3 or greater (≥80% growth inhibition)): > 80 µg/mL; MCIC [3]: > 80; MIC [3]: 80 µg/mL

Question: KWKKALRALARHLK [Peptide 19] was tested. Which MIC [4] did it give?
Answer: 6.25 μg per ml

Question: What about the MIC [5] of the same substance?
Answer: 3.13 μg per ml

Question: And the MIC [6]?
Answer: 6.25 μg per ml

Question: What does the source list for KLKKALRWLARHAK [Peptide 20]?
Answer: MIC [4]: 3.13 μg per ml; MIC [5]: 3.13 μg per ml; MIC [6]: 3.13 μg per ml
